In patent US20200367506A1, “RARE EARTH DEPENDENT PLANT PROBIOTIC COMPOSITIONS AND METHODS OF USE” (BOARD OF TRUSTEES OF MICHIGAN STATE UNIVERSITY, priority 2017, published 2020):

Tests used:
M. extorquens = assay: Illumina-based transcriptome analysis (RNA-seq) of cells grown with and without REE; type: cell-based; details: La^3+ vs without REE
Method: To identify mechanisms by which M. extorquens can sense and acquire REE, as well as to support REE-dependent methanol growth, Illumina-based transcriptome analyses (RNA-seq) was performed. Comparison of cells grown in liquid culture with and without REE addition allowed us to identify changes that may be relevant in planta.
It is intriguing to speculate that the reason why Fdh4 activity has never been detected is because it may require REEs. Frc12 and Oxr are enzymes of the oxalyl-CoA pathway (OXC). This pathway is known to produce glyoxylate when M. extorquens is grown with oxalate as a carbon source.

[1] = tested on: M. extorquens mxaF mutant strain; assay: REE/La^3+-dependent methanol growth of mxaF mutant strain; type: cell-based
Text: FIGS. 5A-5B show REE-dependent methylotrophy.
There is a direct link between REEs commonly used in fertilizers, such as La, Ce^3+, Pr^3+, and Nd^3+, and growth of M. extorquens using methanol as carbon source (FIG. 5A). […] Alternatively, it is possible that the remaining lanthanides are not transported into the cell. Detailed biochemical analyses are required to distinguish between these two possibilities.
The concentrations of exogenous La^3+ that would support La^3+-dependent methanol growth were assessed using methanol medium supplemented with La^3+ concentrations ranging from 0-20 μM (FIG. 5B). The mxaF mutant strain was used to eliminate any contribution by the Ca^2+-dependent methanol dehydrogenase MxaFI.

[La+3] [La^3+, lanthanum]
Upregulation of Zn-containing alcohol dehydrogenase Zn-ADH (M. extorquens): 4.8 fold | Upregulation of an ABC transporter (M. extorquens): 6.3 fold | Upregulation of formate dehydrogenase Fdh4 (M. extorquens): 4 fold | Upregulation of formyl-CoA transferase Frc12 (M. extorquens): 3 fold | Upregulation of oxalyl-CoA (Oxr) (M. extorquens): 2.5 fold | Upregulation of putative alcohol dehydrogenase quinoprotein ExaF (M. extorquens): 3.4 fold | Upregulation of the PQQ synthesis pathway (M. extorquens): 10 fold | Upregulation of methanol dehydrogenase genes XoxF1 and XoxF2 (M. extorquens; methanol growth): 10 fold | Final OD600 ([1]; 1 μM La^3+): 1.6 | La^3+ concentration resulting in maximal growth rate ([1]; methanol medium): 1 µM | Lowest La^3+ concentration at which La^3+-dependent methanol growth was observed ([1]; poor growth): 2.5 nM
